Data as given in patent US20230277553A1, “THERAPEUTIC COMPOSITION OF CURE-PRO COMPOUNDS FOR TARGETED DEGRADATION OF BET DOMAIN PROTEINS, AND METHODS OF MAKING AND USAGE” (CORNELL UNIVERSITY, priority 2020, published 2023).
“Also recorded” adds a separate entry of the source.

Key:
BRD3 = target: T1, BRD3 (Homo sapiens, UniProt Q15059); experiment: CURE-PRO-mediated BRD3 degradation with MDM2 ligands, Western blot, HCT116 cells; assay type: cell-based; conditions: HCT116, 24 h, 1:1, 10 μM
T1 construct: endogenous in cells; host or cells: HCT116
From the text: (§1) Anti-BRD4 (13440, 1:1,000 dilution for Western Blot and 1:25 dilution for ProteinSimple); Anti-BRD2 (5848 1:1,000 dilution for Western Blot and 1:25 dilution for ProteinSimple); β-Actin (3700, 1:2,000 dilution for Western Blot), β-Actin (4970, 1:50 dilution for ProteinSimple) anti-mouse IgG-HRP, and anti-rabbit IgG-HRP antibodies were purchased Cell Signaling Technology. Anti-GAPDH (600-401-A33, 1:100 dilution for ProteinSimple) was purchased from Rockland Immunochemicals, Inc. Anti-BRD3 (sc-81202, 1:200 dilution for Western Blot) was purchased from Santa Cruz Biotechnology.
HeLa, MCF7, or HCT116 cells (2.5-3×10^6) were treated for 24 hours with the indicated compounds solubilized in DMSO. The cells were washed in ice-cold PBS and were then lysed in RIPA lysis buffer (150 mM NaCl, 5 mM EDTA, 1% NP-40, 0.5% sodium deoxycholate, 0.1% SDS, 50 mM Tris, pH 8.0.) with Roche protease inhibitor complete cocktail and phosphatase inhibitors (10 mM sodium fluoride, 10 mM sodium pyrophosphate, 1 mM sodium orthovanadate and 20 mM β-glycerophosphate). The total protein concentrations were determined by Bradford Protein Assay and 10-20 μg of protein was loaded onto 4-15% Tris-Glycine gradient gels (Biorad). […] Signal was detected with ECL Western Blotting Substrate (Pierce) and X-ray film processed with a Konica SRX-101 X-ray film processor or captured by Bio-Rad's Chemidoc Imaging system. […]

BRD4 = BRD4 (Homo sapiens, UniProt O60885); experiment: CURE-PRO-mediated BRD4 degradation with MDM2 ligands, Western blot, HCT116 cells; assay type: cell-based; design: endogenous in cells; conditions: for BRD4 degradation, in combination with MDM2 ligands 8310 and 8312 (Western blot): HCT116, 24 h, 1:1, 10 μM; for Selectivity of degradation within the BRD protein family, with MDM2 ligands: HCT116, Western blot, with 8310 / 8312
From the text: as §1
HeLa, MCF7, or HCT116 cells (2.5-3×10^6) were treated for 24 hours with the indicated compounds solubilized in DMSO. The cells were washed in ice-cold PBS and were then lysed in RIPA lysis buffer (150 mM NaCl, 5 mM EDTA, 1% NP-40, 0.5% sodium deoxycholate, 0.1% SDS, 50 mM Tris, pH 8.0.) with Roche protease inhibitor complete cocktail and phosphatase inhibitors (10 mM sodium fluoride, 10 mM sodium pyrophosphate, 1 mM sodium orthovanadate and 20 mM β-glycerophosphate). The total protein concentrations were determined by Bradford Protein Assay and 10-20 μg of protein was loaded onto 4-15% Tris-Glycine gradient gels (Biorad). After standard gel electrophoresis, the separated proteins were transferred to PVDF membrane by wet transfer. The immunoblots were then blocked for 1 hour in 5% skim milk in TBST or 5% BSA in TBST, according to manufacturer's instructions, before an overnight incubation at 4° C. with indicated antibodies and membranes. Membranes were then incubated with the appropriate horseradish peroxidase-conjugated secondary antibodies (1:5,000 dilution) for 1 h at room temperature and the bands were visualized using the Clarity Max Western ECL Substrate (Biorad) and the ChemiDoc Imaging System (Biorad). Signal was detected with ECL Western Blotting Substrate (Pierce) and X-ray film processed with a Konica SRX-101 X-ray film processor or captured by Bio-Rad's Chemidoc Imaging system.
HCT116 cells (3×10^6) were treated for 24 hours with the compounds solubilized in DMSO. Compounds were added at 100 nM-10 μM each. Standardized protein samples were electrophoresed and imaged as described in the Immunoblotting section above. FIGS. 64 and 65 depict the concentration-dependence of CURE-PRO-mediated BRD2 and BRD3 degradation using MDM2 ligands.

SLC19A1 = experiment: Suppression of c-MYC downstream target gene SLC19A1, RT-PCR (Cells-to-Ct), HeLa cells; assay type: cell-based, Human; conditions: 24 h, 10 μM each
Protocol: The suppression of the expression of the downstream c-MYC target, SLC19A1, was measured by RT-PCR using Power SYBR© Green Cells-to-Ct™ Kit (Life Technologies). Adherent cells were plated on 96 well plates at 5,000 cells per well were treated for 24h with monomer compounds and compounds capable of reversible interactions (1 nM-100 μM). Cells were subsequently washed in ice-cold PBS processed according to the manufacturer's instructions. Quantitative real-time PCR was performed using a ViiA™ 7 Real-time PCR System (Applied Biosystems, Foster City, Calif., USA). GAPDH and ACTB served as internal controls. The primers used were (5′-3′): GAPDH-F: AGCCACATCGCTCAGACAC (SEQ ID NO:9), GAPDH-R: GCCCAATACGACCAAATCC (SEQ ID NO:10), ACTB —F: CCAACCGCGAGAAGATGA (SEQ ID NO: 11), ACTB -R: […] (SEQ ID NO: 12), SLC19A1-F: […] (SEQ ID NO:13), SLC19A1-R: […] (SEQ ID NO: 14).
HeLa cells (1×104) were treated for 24 hours in 96 well plates with the compounds solubilized in DMSO. Compounds were added at 10 μM each and RNA expression measured by the Cells-to Ct method described above (Thermofisher). CURE-PRO-mediated suppression of the downstream target gene of c-MYC, SLC19A1, after BRD4 degradation was evident in cells treated with the combination of BRD-N25 and 8310 or 8312 (FIG. 66) and BRD-N39 and 8310 and 8312 (FIG. 67) as indicated by a rightward shift in the curve and in increase in the Ct values.

T1 sequence (Q15059 whole entry): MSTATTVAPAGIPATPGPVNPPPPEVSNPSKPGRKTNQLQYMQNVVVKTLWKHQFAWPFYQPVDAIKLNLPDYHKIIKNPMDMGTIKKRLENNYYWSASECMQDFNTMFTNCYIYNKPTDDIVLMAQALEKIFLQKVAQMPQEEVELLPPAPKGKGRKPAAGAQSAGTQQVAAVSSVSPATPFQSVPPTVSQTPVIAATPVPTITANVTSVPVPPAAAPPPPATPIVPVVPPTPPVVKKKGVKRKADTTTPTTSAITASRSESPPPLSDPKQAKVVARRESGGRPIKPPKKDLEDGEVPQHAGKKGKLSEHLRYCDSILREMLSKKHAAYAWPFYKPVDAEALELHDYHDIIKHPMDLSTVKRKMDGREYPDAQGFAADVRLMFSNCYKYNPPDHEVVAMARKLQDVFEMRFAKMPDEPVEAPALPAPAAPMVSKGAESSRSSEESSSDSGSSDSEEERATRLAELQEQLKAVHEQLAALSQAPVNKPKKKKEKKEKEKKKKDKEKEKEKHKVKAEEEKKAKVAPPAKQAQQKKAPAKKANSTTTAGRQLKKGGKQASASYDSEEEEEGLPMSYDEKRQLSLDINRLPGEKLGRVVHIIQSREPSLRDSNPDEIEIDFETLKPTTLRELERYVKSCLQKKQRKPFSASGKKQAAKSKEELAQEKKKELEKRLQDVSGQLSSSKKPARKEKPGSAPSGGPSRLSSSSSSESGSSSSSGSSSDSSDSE

| Structure (SMILES) | BRD3 degradation, in combination with MDM2 ligands 8310 and 8312 (BRD3) | BRD4 degradation, in combination with MDM2 ligands 8310 and 8312 (Western blot) (BRD4) | Selectivity of degradation within the BRD protein family, with MDM2 ligands (BRD4) | Suppression of SLC19A1 expression, combination with 8310 (SLC19A1) | Suppression of SLC19A1 expression, combination with 8312 (SLC19A1) |
| --- | --- | --- | --- | --- | --- |
| CCNC(=O)C[C@@H]1N=C(c2ccc(Cl)cc2)c2cc(OCCNC(=O)c3cccc(O)c3O)ccc2-n2c(C)nnc21 [BRD-N25] | degradation of BRD3; also recorded: Degradation is evident | caused BRD4 degradation; also recorded: Degradation is evident | some selectivity for BRD3 and BRD4 over BRD2 for 8310 | evident | evident; also recorded: suppressed more substantially |
| CCNC(=O)C[C@@H]1N=C(c2ccc(Cl)cc2)c2cc(OCCOCCNC(=O)c3cccc(O)c3O)ccc2-n2c(C)nnc21 [BRD-N39, N-(2-(2-(((4S)-6-(4-chlorophenyl)-4-(2-(ethylamino)-2-oxoethyl)-1-methyl-4H-benzo[f][1,2,4]triazolo[4,3-a][1,4]diazepin-8-yl)oxy)ethoxy)ethyl)-2,3-dihydroxybenzamide] | degradation of BRD3; also recorded: Degradation is evident | caused BRD4 degradation; also recorded: Degradation is evident | some selectivity for BRD4 over BRD2 and BRD3 | evident; also recorded: suppression to levels comparable to that of JQ1 treatment | Complete suppression of SLC19A1 was evident; also recorded: completely suppressed |
